# Target: T1, human Npt2a (Homo sapiens, UniProt Q06495)
# T1 construct: expressed in transfected cells
# T1 sequence (Q06495 1-639): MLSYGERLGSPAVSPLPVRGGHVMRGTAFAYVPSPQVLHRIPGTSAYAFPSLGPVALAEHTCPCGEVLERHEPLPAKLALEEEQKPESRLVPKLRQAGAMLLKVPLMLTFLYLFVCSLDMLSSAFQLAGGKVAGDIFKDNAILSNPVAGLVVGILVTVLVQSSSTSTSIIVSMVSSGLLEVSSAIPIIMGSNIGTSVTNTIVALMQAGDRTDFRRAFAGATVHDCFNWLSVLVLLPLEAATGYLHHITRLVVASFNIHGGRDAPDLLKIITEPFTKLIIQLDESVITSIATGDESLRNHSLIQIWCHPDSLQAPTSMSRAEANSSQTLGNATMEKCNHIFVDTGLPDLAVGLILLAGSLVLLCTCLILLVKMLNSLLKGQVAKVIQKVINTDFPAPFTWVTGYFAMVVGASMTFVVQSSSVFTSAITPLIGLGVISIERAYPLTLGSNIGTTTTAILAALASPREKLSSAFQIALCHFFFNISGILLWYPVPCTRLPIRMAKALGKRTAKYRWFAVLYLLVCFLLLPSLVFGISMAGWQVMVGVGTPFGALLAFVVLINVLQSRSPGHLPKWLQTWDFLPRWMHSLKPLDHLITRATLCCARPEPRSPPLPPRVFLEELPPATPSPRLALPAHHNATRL
# Experiment: Npt2a activity cell based assay, membrane potential dye, CHO T-REx hNpt2a cells
# Conditions: doxycycline-induced, depolarization by sodium phosphate influx, average or median values if tested more than once
# Outline: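 Cells were doxycycline-induced CHO T-REx hNpt2a, dye-loaded and pretreated 5 min at RT with 1 nM–50 μM compound in Na-free pH 7.4 buffer. IC50 was fit to the post/pre-trigger fluorescence ratio.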
row,SMILES,IC50
1,"Cc1cc(C)n(-c2cc(Nc3c(C)c(-c4ccc(Br)cc4)nn3C)ncn2)n1 [Example 260, N-[3-(4-bromophenyl)-1,4-dimethyl-1H-pyrazol-5-yl]-6-(3,5-dimethyl-1H-pyrazol-1-yl)pyrimidin-4-amine]",0.14 µM
2,"Cc1nn(-c2cc(Nc3nn(C)c(-c4ccc(F)cc4)c3C)ncn2)c(C(C)(C)O)c1Cl [Example 261, 2-[4-chloro-1-(6-{[5-(4-fluorophenyl)-1,4-dimethyl-1H-pyrazol-3-yl]amino}pyrimidin-4-yl)-3-methyl-1H-pyrazol-5-yl]propan-2-ol]",0.02 µM
3,"Cc1cc(C(C)(C)O)n(-c2cc(Nc3nn(C)c(-c4ccc(F)cc4)c3C)ncn2)n1 [Example 262, 2-[1-(6-{[5-(4-fluorophenyl)-1,4-dimethyl-1H-pyrazol-3-yl]amino}pyrimidin-4-yl)-3-methyl-1H-pyrazol-5-yl]propan-2-ol]",0.033 µM
4,"Cc1cc(C(C)(C)O)n(-c2cc(Nc3c(C)c(-c4ccc(C#N)cc4)nn3CC3CC3)ncn2)n1 [Example 263, 4-[1-(cyclopropylmethyl)-5-({6-[5-(2-hydroxypropan-2-yl)-3-methyl-1H-pyrazol-1-yl]pyrimidin-4-yl}amino)-4-methyl-1H-pyrazol-3-yl]benzonitrile]",0.111 µM
5,"CCc1c(-c2ccc(F)cc2)nn(C)c1Nc1cc(-n2nc(C)cc2C(C)(C)O)ncn1 [Example 264, 2-[1-(6-{[4-ethyl-3-(4-fluorophenyl)-1-methyl-1H-pyrazol-5-yl]amino}pyrimidin-4-yl)-3-methyl-1H-pyrazol-5-yl]propan-2-ol]",0.5 µM
6,"CCc1c(-c2ccc(F)cc2)nn(C)c1Nc1cc(-n2nc(C)c(Br)c2C)ncn1 [Example 265, 6-(4-bromo-3,5-dimethyl-1H-pyrazol-1-yl)-N-[4-ethyl-3-(4-fluorophenyl)-1-methyl-1H-pyrazol-5-yl]pyrimidin-4-amine]",0.18 µM
7,"Cc1nn(-c2cc(Nc3[nH]nc(-c4ccc(C#N)cc4)c3C)ncn2)c(C)c1F [Example 266, 4-(5-{[6-(4-fluoro-3,5-dimethyl-1H-pyrazol-1-yl)pyrimidin-4-yl]amino}-4-methyl-1H-pyrazol-3-yl)benzonitrile]",0.41 µM
8,"Cc1nn(-c2cc(Nc3nn(C)c(-c4ccc(F)cc4)c3C)ncn2)c(C)c1F [Example 267, 6-(4-fluoro-3,5-dimethyl-1H-pyrazol-1-yl)-N-[5-(4-fluorophenyl)-1,4-dimethyl-1H-pyrazol-3-yl]pyrimidin-4-amine]",0.027 µM
9,"Cc1nn(-c2cc(Nc3c(C)c(-c4ccc(C#N)cc4)nn3CC3CC3)ncn2)c(C)c1F [Example 268, 4-[1-(cyclopropylmethyl)-5-{[6-(4-fluoro-3,5-dimethyl-1H-pyrazol-1-yl)pyrimidin-4-yl]amino}-4-methyl-1H-pyrazol-3-yl]benzonitrile]",0.008 µM
10,"CCc1c(Nc2cc(-n3nc(C)c(Cl)c3C(F)F)ncn2)nn(C)c1-c1ccc(F)cc1 [Example 270, 6-[4-chloro-5-(difluoromethyl)-3-methyl-1H-pyrazol-1-yl]-N-[4-ethyl-5-(4-fluorophenyl)-1-methyl-1H-pyrazol-3-yl]pyrimidin-4-amine]",0.012 µM
11,"CCc1c(Nc2cc(-n3nc(C)c(-c4nnc(C)o4)c3C)ncn2)nn(C)c1-c1ccc(F)cc1 [Example 271, 6-[3,5-dimethyl-4-(5-methyl-1,3,4-oxadiazol-2-yl)-1H-pyrazol-1-yl]-N-[4-ethyl-5-(4-fluorophenyl)-1-methyl-1H-pyrazol-3-yl]pyrimidin-4-amine]",0.039 µM
12,"CCc1c(Nc2cc(-n3nc(C)c(C(=O)N4CCC(C(F)(F)F)C4)c3C)ncn2)nn(C)c1-c1ccc(F)cc1 (stereo not drawn) [Example 272, [1-(6-{[4-ethyl-5-(4-fluorophenyl)-1-methyl-1H-pyrazol-3-yl]amino}pyrimidin-4-yl)-3,5-dimethyl-1H-pyrazol-4-yl][3-(trifluoromethyl)pyrrolidin-1-yl]methanone]",0.34 µM
13,"CCc1c(Nc2cc(-n3nc(C)c4c3CCC4=O)ncn2)nn(C)c1-c1ccc(F)cc1 [Example 273, 1-(6-{[4-ethyl-5-(4-fluorophenyl)-1-methyl-1H-pyrazol-3-yl]amino}pyrimidin-4-yl)-3-methyl-5,6-dihydrocyclopenta[c]pyrazol-4(1H)-one]",0.12 µM
14,"CCc1c(Nc2cc(-n3nc4c(c3C)C(=O)CC4)ncn2)nn(C)c1-c1ccc(F)cc1 [Example 274, 2-(6-{[4-ethyl-5-(4-fluorophenyl)-1-methyl-1H-pyrazol-3-yl]amino}pyrimidin-4-yl)-3-methyl-5,6-dihydrocyclopenta[c]pyrazol-4(2H)-one]",0.044 µM
15,"Cc1cc(C)n(-c2cc(Nc3nn(C)c(-c4ccc(F)cc4)c3CN3CC(C(F)(F)F)C3)ncn2)n1 [Example 275, 6-(3,5-dimethyl-1H-pyrazol-1-yl)-N-[5-(4-fluorophenyl)-1-methyl-4-{[3-(trifluoromethyl)azetidin-1-yl]methyl}-1H-pyrazol-3-yl]pyrimidin-4-amine]",1.05 µM
16,"Cc1nn(-c2cc(Nc3nn(C)c(-c4ccc(F)cc4)c3Cl)ncn2)c(C)c1C(C)(C)O [Example 276, 2-[1-(6-{[4-chloro-5-(4-fluorophenyl)-1-methyl-1H-pyrazol-3-yl]amino}pyrimidin-4-yl)-3,5-dimethyl-1H-pyrazol-4-yl]propan-2-ol]",0.025 µM
17,"Cc1nn(-c2cc(Nc3c(Cl)c(-c4ccc(F)cc4)nn3C)ncn2)c(C)c1C(C)(C)O [Example 277, 2-[1-(6-{[4-chloro-3-(4-fluorophenyl)-1-methyl-1H-pyrazol-5-yl]amino}pyrimidin-4-yl)-3,5-dimethyl-1H-pyrazol-4-yl]propan-2-ol]",0.15 µM
18,"Cc1nn(-c2cc(Nc3c(Cl)c(-c4ccc(F)cc4)nn3C)ncn2)c(C(C)(C)O)c1Cl [Example 278, 2-[4-chloro-1-(6-{[4-chloro-3-(4-fluorophenyl)-1-methyl-1H-pyrazol-5-yl]amino}pyrimidin-4-yl)-3-methyl-1H-pyrazol-5-yl]propan-2-ol]",0.086 µM
19,"CCOC(=O)Cc1c(C)nn(-c2cc(Nc3c(C)c(-c4ccc(F)cc4)nn3CC3CC3)ncn2)c1C [Example 281, ethyl [1-(6-{[1-(cyclopropylmethyl)-3-(4-fluorophenyl)-4-methyl-1H-pyrazol-5-yl]amino}pyrimidin-4-yl)-3,5-dimethyl-1H-pyrazol-4-yl]acetate]",0.016 µM
20,"Cc1nn(-c2cc(Nc3c(C)c(-c4ccc(F)cc4)nn3CC3CC3)ncn2)c(C)c1CO [Example 282, [1-(6-{[1-(cyclopropylmethyl)-3-(4-fluorophenyl)-4-methyl-1H-pyrazol-5-yl]amino}pyrimidin-4-yl)-3,5-dimethyl-1H-pyrazol-4-yl]methanol]",0.073 µM
21,"CCOC(=O)c1c(C)nn(-c2cc(Nc3c(C)c(-c4ccc(OC(F)(F)F)cc4)nn3CC3CC3)ncn2)c1C [Example 284, ethyl 1-[6-({1-(cyclopropylmethyl)-4-methyl-3-[4-(trifluoromethoxy)phenyl]-1H-pyrazol-5-yl}amino)pyrimidin-4-yl]-3,5-dimethyl-1H-pyrazole-4-carboxylate]",0.025 µM
22,"CCOC(=O)c1c(C)nn(-c2cc(Nc3c(C)c(-c4ccc(C(F)(F)F)cc4)nn3CC3CC3)ncn2)c1C [Example 285, ethyl 1-[6-({1-(cyclopropylmethyl)-4-methyl-3-[4-(trifluoromethyl)phenyl]-1H-pyrazol-5-yl}amino)pyrimidin-4-yl]-3,5-dimethyl-1H-pyrazole-4-carboxylate]",0.14 µM
23,"Cc1c(-c2ccc(C#N)cc2)nn(CC2CC2)c1Nc1cc(-n2nc(C(C)C)cc2C)ncn1 [Example 286, 4-[1-(cyclopropylmethyl)-4-methyl-5-({6-[5-methyl-3-(propan-2-yl)-1H-pyrazol-1-yl]pyrimidin-4-yl}amino)-1H-pyrazol-3-yl]benzonitrile]",0.093 µM
24,"Cc1nn(-c2cc(Nc3c(C)c(-c4ccc(F)cc4)nn3CC3CC3)ncn2)c(C)c1CC1(O)CC1 [Example 287, 1-{[1-(6-{[1-(cyclopropylmethyl)-3-(4-fluorophenyl)-4-methyl-1H-pyrazol-5-yl]amino}pyrimidin-4-yl)-3,5-dimethyl-1H-pyrazol-4-yl]methyl}cyclopropanol]",0.005 µM
25,"Cc1nn(-c2cc(Nc3c(C)c(-c4ccc(F)cc4)nn3CC3CC3)ncn2)c(C)c1C#N [Example 288, 1-(6-{[1-(cyclopropylmethyl)-3-(4-fluorophenyl)-4-methyl-1H-pyrazol-5-yl]amino}pyrimidin-4-yl)-3,5-dimethyl-1H-pyrazole-4-carbonitrile]",0.016 µM
26,"Cc1nn(-c2cc(Nc3c(C)c(-c4ccc(OC(F)(F)F)cc4)nn3CC3CC3)ncn2)c(C)c1C(C)(C)O [Example 289, 2-{1-[6-({1-(cyclopropylmethyl)-4-methyl-3-[4-(trifluoromethoxy)phenyl]-1H-pyrazol-5-yl}amino)pyrimidin-4-yl]-3,5-dimethyl-1H-pyrazol-4-yl}propan-2-ol]",0.023 µM
27,"Cc1nn(-c2cc(Nc3c(C)c(-c4ccc(OC(F)(F)F)cc4)nn3CC3CC3)ncn2)c(C(C)(C)O)c1Cl [Example 290, 2-{4-chloro-1-[6-({1-(cyclopropylmethyl)-4-methyl-3-[4-(trifluoromethoxy)phenyl]-1H-pyrazol-5-yl}amino)pyrimidin-4-yl]-3-methyl-1H-pyrazol-5-yl}propan-2-ol]",0.17 µM

# — US11208400B2, “Substituted 6-(1H-pyrazol-1-yl)pyrimidin-4-amine derivatives and uses thereof” (Bayer Aktiengesellschaft, priority 2016, dated 2021)
